According to ChEMBL document CHEMBL1909046, “DrugMatrix in vitro pharmacology data”:

biological target: 5-hydroxytryptamine receptor 1B (Rattus norvegicus, UniProt P28564); test: not given; assay type: cell membranes, Wistar, Cerebral cortex, Membrane; conditions: not given; note: in other assays of this panel Not Active means under 50% inhibition at 10 µM
Sequence (P28564 whole entry): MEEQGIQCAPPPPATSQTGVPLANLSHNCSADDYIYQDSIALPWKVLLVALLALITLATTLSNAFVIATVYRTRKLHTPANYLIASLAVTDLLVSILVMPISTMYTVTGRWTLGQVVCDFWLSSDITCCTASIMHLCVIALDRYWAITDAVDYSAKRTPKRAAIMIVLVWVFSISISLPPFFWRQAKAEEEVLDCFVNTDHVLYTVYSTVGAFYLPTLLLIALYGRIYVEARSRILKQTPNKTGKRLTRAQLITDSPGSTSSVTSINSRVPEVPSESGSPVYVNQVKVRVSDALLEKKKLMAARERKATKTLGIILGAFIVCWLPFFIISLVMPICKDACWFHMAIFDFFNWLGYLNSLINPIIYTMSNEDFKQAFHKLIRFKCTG

| Compound | IC50 |
| --- | --- |
| CC1(C)S[C@@H]2[C@H](NC(=O)[C@H](N)c3ccc(O)cc3)C(=O)N2[C@H]1C(=O)O [AMOXICILLIN] | Not Active |
| NS(=O)(=O)c1cc2c(cc1Cl)NCNS2(=O)=O [HYDROCHLOROTHIAZIDE] | Not Active |
| Oc1cccc2cccnc12 [OXYQUINOLINE] | Not Active |

test system: not listed separately; test: DRUGMATRIX: Sigma2 radioligand binding (ligand: [3H] Ifenprodil); assay type: cell membranes, Rattus norvegicus, Wistar, Brain, Membrane; conditions: Not Active = under 50% inhibition at 10 µM

| Compound | IC50 | Ki |
| --- | --- | --- |
| CC1(C)S[C@@H]2[C@H](NC(=O)[C@H](N)c3ccc(O)cc3)C(=O)N2[C@H]1C(=O)O [AMOXICILLIN] | Not Active | Not Active |
| NS(=O)(=O)c1cc2c(cc1Cl)NCNS2(=O)=O [HYDROCHLOROTHIAZIDE] | Not Active | Not Active |
| Oc1cccc2cccnc12 [OXYQUINOLINE] | Not Active | Not Active |

test system: not listed separately; test: DRUGMATRIX: beta-Lactamase enzyme inhibition (substrate: Nitrocefin); parameters: species or system Bacillus cereus; conditions: Not Active = under 50% inhibition at 10 µM

| Compound | IC50 | Ki |
| --- | --- | --- |
| CC1(C)S[C@@H]2[C@H](NC(=O)[C@H](N)c3ccc(O)cc3)C(=O)N2[C@H]1C(=O)O [AMOXICILLIN] | Not Active | Not Active |
| NS(=O)(=O)c1cc2c(cc1Cl)NCNS2(=O)=O [HYDROCHLOROTHIAZIDE] | Not Active | Not Active |
| Oc1cccc2cccnc12 [OXYQUINOLINE] | Not Active | Not Active |

test system: not listed separately; test: DRUGMATRIX: Purinergic P2X radioligand binding (ligand: [3H] alpha, beta-Methylene-ATP); assay type: cell membranes, Oryctolagus cuniculus, New Zealand albino, Urinary bladder, Membrane; conditions: Not Active = under 50% inhibition at 10 µM

| Compound | IC50 | Ki |
| --- | --- | --- |
| CC1(C)S[C@@H]2[C@H](NC(=O)[C@H](N)c3ccc(O)cc3)C(=O)N2[C@H]1C(=O)O [AMOXICILLIN] | Not Active | Not Active |
| NS(=O)(=O)c1cc2c(cc1Cl)NCNS2(=O)=O [HYDROCHLOROTHIAZIDE] | Not Active | Not Active |
| Oc1cccc2cccnc12 [OXYQUINOLINE] | Not Active | Not Active |

biological target: T1, Cathepsin G (Homo sapiens, UniProt P08311); test: not given; assay type: tissue-based; conditions: neutrophil;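 note: inhibition of Cathepsin G enzyme activity, tested on an AMC-conjugated peptide substrate; in other assays of this panel Not Active means under 50% inhibition at 10 µM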
T1 sequence (P08311 whole entry): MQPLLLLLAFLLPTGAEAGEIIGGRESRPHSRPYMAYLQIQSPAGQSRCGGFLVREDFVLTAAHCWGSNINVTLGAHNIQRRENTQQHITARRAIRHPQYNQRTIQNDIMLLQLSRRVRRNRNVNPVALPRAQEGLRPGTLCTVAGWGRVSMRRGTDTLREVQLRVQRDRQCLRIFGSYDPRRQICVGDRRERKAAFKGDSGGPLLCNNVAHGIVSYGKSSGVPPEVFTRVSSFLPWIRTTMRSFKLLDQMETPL

| Compound | IC50 |
| --- | --- |
| CC1(C)S[C@@H]2[C@H](NC(=O)[C@H](N)c3ccc(O)cc3)C(=O)N2[C@H]1C(=O)O [AMOXICILLIN] | Not Active |
| NS(=O)(=O)c1cc2c(cc1Cl)NCNS2(=O)=O [HYDROCHLOROTHIAZIDE] | Not Active |
| Oc1cccc2cccnc12 [OXYQUINOLINE] | Not Active |

biological target: Beta-1 adrenergic receptor (Homo sapiens, UniProt P08588); test: DRUGMATRIX: Adrenergic beta1 radioligand binding (ligand: [125I] Cyanopindolol); assay type: cell membranes, CHO-K1, Membrane; conditions: cho-k1; Not Active = under 50% inhibition at 10 µM
Sequence (P08588 whole entry): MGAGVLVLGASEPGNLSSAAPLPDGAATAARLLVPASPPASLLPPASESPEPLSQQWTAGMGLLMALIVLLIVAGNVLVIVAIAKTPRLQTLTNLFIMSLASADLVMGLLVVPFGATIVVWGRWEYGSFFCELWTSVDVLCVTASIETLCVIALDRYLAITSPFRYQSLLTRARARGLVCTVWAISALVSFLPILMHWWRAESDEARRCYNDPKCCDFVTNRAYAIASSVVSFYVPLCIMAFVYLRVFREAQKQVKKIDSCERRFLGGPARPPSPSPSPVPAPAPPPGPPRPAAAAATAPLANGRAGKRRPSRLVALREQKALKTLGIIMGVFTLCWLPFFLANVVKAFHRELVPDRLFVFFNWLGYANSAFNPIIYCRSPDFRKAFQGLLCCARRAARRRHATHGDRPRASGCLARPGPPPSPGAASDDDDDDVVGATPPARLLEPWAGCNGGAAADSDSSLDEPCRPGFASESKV

| Compound | IC50 |
| --- | --- |
| CC1(C)S[C@@H]2[C@H](NC(=O)[C@H](N)c3ccc(O)cc3)C(=O)N2[C@H]1C(=O)O [AMOXICILLIN] | Not Active |
| NS(=O)(=O)c1cc2c(cc1Cl)NCNS2(=O)=O [HYDROCHLOROTHIAZIDE] | Not Active |
| Oc1cccc2cccnc12 [OXYQUINOLINE] | Not Active |

biological target: Mu-type opioid receptor (Homo sapiens, UniProt P35372); test: DRUGMATRIX: Opiate mu (OP3, MOP) radioligand binding (ligand: [3H] Diprenorphine); assay type: cell membranes, CHO-K1, Membrane; conditions: cho-k1; Not Active = under 50% inhibition at 10 µM
Sequence (P35372 whole entry): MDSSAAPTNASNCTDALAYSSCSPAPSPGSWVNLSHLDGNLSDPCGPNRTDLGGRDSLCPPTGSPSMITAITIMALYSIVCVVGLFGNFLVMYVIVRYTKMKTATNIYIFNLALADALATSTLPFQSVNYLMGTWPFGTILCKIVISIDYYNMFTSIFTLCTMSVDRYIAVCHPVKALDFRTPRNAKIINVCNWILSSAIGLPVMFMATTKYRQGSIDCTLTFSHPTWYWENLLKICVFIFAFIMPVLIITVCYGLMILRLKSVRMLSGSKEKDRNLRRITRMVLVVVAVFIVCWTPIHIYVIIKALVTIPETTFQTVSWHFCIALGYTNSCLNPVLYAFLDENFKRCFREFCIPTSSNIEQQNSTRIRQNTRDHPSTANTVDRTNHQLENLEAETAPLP

| Compound | IC50 |
| --- | --- |
| CC1(C)S[C@@H]2[C@H](NC(=O)[C@H](N)c3ccc(O)cc3)C(=O)N2[C@H]1C(=O)O [AMOXICILLIN] | Not Active |
| NS(=O)(=O)c1cc2c(cc1Cl)NCNS2(=O)=O [HYDROCHLOROTHIAZIDE] | Not Active |
| Oc1cccc2cccnc12 [OXYQUINOLINE] | Not Active |

test system: not listed separately; test: DRUGMATRIX: Leukotriene, BLT (LTB4) radioligand binding (ligand: [3H]LTB4); assay type: cell membranes, Membrane; conditions: u-937; Not Active = under 50% inhibition at 10 µM

| Compound | IC50 | Ki |
| --- | --- | --- |
| CC1(C)S[C@@H]2[C@H](NC(=O)[C@H](N)c3ccc(O)cc3)C(=O)N2[C@H]1C(=O)O [AMOXICILLIN] | Not Active | Not Active |
| NS(=O)(=O)c1cc2c(cc1Cl)NCNS2(=O)=O [HYDROCHLOROTHIAZIDE] | Not Active | Not Active |
| Oc1cccc2cccnc12 [OXYQUINOLINE] | Not Active | Not Active |

biological target: T2, D(4) dopamine receptor (Homo sapiens, UniProt P21917); test: DRUGMATRIX: Dopamine D4.2 radioligand binding (ligand: [3H] Spiperone); assay type: cell membranes, CHO-K1, Membrane; conditions: cho-k1; Not Active = under 50% inhibition at 10 µM
T2 sequence (P21917 whole entry): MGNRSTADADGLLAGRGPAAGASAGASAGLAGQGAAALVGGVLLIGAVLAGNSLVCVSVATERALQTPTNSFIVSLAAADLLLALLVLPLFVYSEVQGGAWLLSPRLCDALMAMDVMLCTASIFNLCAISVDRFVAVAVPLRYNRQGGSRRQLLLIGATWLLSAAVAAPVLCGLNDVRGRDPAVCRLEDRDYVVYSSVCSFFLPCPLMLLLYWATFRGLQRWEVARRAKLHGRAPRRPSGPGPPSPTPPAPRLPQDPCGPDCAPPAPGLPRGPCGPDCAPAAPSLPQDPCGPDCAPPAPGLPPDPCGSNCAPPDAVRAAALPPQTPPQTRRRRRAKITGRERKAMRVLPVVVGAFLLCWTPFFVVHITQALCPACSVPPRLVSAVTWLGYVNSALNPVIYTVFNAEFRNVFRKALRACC

| Compound | IC50 |
| --- | --- |
| CC1(C)S[C@@H]2[C@H](NC(=O)[C@H](N)c3ccc(O)cc3)C(=O)N2[C@H]1C(=O)O [AMOXICILLIN] | Not Active |
| NS(=O)(=O)c1cc2c(cc1Cl)NCNS2(=O)=O [HYDROCHLOROTHIAZIDE] | Not Active |
| Oc1cccc2cccnc12 [OXYQUINOLINE] | Not Active |

biological target: T3, Caspase-1 (Homo sapiens, UniProt P29466); test: not given; parameters: species or system Escherichia coli; conditions: not given;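 note: Caspase-1 enzyme inhibition assay with a peptide substrate; in other assays of this panel Not Active means under 50% inhibition at 10 µM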
T3 sequence (P29466 whole entry): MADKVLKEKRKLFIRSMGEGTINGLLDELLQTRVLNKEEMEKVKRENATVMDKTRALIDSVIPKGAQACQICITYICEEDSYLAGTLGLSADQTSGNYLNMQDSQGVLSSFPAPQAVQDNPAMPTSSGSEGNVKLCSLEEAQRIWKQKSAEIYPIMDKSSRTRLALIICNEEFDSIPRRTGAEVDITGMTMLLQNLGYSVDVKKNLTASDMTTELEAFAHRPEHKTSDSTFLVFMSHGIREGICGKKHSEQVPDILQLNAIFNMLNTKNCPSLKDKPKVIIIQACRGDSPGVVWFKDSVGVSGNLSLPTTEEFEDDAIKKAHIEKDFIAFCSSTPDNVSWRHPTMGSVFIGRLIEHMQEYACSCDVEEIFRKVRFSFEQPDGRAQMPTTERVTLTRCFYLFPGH

| Compound | IC50 |
| --- | --- |
| CC1(C)S[C@@H]2[C@H](NC(=O)[C@H](N)c3ccc(O)cc3)C(=O)N2[C@H]1C(=O)O [AMOXICILLIN] | Not Active |
| NS(=O)(=O)c1cc2c(cc1Cl)NCNS2(=O)=O [HYDROCHLOROTHIAZIDE] | Not Active |
| Oc1cccc2cccnc12 [OXYQUINOLINE] | Not Active |

biological target: T4, 5-hydroxytryptamine receptor 2C (Homo sapiens, UniProt P28335); test: DRUGMATRIX: Serotonin (5-Hydroxytryptamine) 5-HT2C radioligand binding (ligand: [3H] Mesulergine); assay type: cell membranes, CHO-K1, Membrane; conditions: cho-k1; Not Active = under 50% inhibition at 10 µM
T4 sequence (P28335 whole entry): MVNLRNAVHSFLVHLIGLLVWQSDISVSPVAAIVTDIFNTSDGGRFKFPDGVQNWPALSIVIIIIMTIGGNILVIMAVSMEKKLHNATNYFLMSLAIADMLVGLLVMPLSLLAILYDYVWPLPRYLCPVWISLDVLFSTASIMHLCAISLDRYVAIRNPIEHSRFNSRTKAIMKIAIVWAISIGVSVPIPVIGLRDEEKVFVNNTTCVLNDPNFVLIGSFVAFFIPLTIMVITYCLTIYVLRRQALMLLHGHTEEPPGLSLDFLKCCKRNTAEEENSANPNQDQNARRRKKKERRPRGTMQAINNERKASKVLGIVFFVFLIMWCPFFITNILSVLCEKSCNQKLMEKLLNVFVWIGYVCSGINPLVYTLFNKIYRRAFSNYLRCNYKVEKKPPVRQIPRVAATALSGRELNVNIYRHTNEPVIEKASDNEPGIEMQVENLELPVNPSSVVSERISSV

| Compound | IC50 |
| --- | --- |
| CC1(C)S[C@@H]2[C@H](NC(=O)[C@H](N)c3ccc(O)cc3)C(=O)N2[C@H]1C(=O)O [AMOXICILLIN] | Not Active |
| NS(=O)(=O)c1cc2c(cc1Cl)NCNS2(=O)=O [HYDROCHLOROTHIAZIDE] | Not Active |
| Oc1cccc2cccnc12 [OXYQUINOLINE] | Not Active |

biological target: Epidermal growth factor receptor (Homo sapiens, UniProt P00533); test: DRUGMATRIX: Protein Tyrosine Kinase, EGF Receptor enzyme inhibition (substrate: Poly(Glu:Tyr)); assay type: cell-based, Insect cells; conditions: insect cells; Not Active = under 50% inhibition at 10 µM
Sequence (P00533 whole entry): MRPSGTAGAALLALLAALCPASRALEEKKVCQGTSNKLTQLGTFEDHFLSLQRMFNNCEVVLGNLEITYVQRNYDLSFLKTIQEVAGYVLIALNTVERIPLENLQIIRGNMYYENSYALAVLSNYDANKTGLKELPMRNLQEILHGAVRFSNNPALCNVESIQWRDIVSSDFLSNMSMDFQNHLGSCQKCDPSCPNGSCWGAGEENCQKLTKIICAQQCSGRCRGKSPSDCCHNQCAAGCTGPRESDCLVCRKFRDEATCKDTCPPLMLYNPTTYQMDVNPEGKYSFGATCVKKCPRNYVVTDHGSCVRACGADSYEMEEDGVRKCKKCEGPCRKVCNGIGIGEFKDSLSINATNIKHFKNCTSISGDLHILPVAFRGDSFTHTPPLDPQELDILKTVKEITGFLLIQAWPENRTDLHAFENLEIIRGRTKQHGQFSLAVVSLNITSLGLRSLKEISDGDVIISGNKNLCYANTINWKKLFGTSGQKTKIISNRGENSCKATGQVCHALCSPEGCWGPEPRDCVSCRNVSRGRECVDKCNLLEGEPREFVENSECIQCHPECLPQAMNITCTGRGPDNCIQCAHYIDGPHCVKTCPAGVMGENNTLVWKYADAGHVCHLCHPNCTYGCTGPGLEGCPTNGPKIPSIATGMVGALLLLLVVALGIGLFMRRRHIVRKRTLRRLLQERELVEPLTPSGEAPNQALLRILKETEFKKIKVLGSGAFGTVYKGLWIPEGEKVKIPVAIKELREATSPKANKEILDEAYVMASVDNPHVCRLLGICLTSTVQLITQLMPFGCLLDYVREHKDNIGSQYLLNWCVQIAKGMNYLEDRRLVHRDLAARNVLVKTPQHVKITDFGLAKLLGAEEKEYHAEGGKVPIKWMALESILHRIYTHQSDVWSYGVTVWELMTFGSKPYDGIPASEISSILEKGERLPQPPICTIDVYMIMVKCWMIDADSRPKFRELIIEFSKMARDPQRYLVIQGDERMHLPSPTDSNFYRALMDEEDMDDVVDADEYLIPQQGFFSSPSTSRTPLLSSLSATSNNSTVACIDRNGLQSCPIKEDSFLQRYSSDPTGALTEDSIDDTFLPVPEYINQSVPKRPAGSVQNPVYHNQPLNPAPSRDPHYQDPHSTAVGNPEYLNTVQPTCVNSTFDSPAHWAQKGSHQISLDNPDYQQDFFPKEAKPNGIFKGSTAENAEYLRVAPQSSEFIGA

| Compound | IC50 |
| --- | --- |
| CC1(C)S[C@@H]2[C@H](NC(=O)[C@H](N)c3ccc(O)cc3)C(=O)N2[C@H]1C(=O)O [AMOXICILLIN] | Not Active |
| NS(=O)(=O)c1cc2c(cc1Cl)NCNS2(=O)=O [HYDROCHLOROTHIAZIDE] | Not Active |
| Oc1cccc2cccnc12 [OXYQUINOLINE] | Not Active |

biological target: Melanocortin receptor 5 (Homo sapiens, UniProt P33032); test: not given; assay type: cell membranes, HEK293, Membrane; conditions: hek293; note: in other assays of this panel Not Active means under 50% inhibition at 10 µM
Sequence (P33032 whole entry): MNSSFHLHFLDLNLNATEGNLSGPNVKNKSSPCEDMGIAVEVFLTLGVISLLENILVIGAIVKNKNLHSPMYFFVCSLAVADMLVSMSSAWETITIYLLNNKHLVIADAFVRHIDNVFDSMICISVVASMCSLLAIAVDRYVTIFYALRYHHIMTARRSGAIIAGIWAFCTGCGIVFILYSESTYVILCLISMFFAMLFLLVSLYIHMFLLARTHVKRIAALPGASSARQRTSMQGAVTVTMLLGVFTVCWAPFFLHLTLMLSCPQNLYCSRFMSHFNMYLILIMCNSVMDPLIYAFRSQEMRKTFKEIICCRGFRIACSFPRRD

| Compound | IC50 |
| --- | --- |
| CC1(C)S[C@@H]2[C@H](NC(=O)[C@H](N)c3ccc(O)cc3)C(=O)N2[C@H]1C(=O)O [AMOXICILLIN] | Not Active |
| NS(=O)(=O)c1cc2c(cc1Cl)NCNS2(=O)=O [HYDROCHLOROTHIAZIDE] | Not Active |
| Oc1cccc2cccnc12 [OXYQUINOLINE] | Not Active |

biological target: Melanocortin receptor 4 (Homo sapiens, UniProt P32245); test: not given; assay type: cell membranes, Membrane; conditions: hek293; note: in other assays of this panel Not Active means under 50% inhibition at 10 µM
Sequence (P32245 whole entry): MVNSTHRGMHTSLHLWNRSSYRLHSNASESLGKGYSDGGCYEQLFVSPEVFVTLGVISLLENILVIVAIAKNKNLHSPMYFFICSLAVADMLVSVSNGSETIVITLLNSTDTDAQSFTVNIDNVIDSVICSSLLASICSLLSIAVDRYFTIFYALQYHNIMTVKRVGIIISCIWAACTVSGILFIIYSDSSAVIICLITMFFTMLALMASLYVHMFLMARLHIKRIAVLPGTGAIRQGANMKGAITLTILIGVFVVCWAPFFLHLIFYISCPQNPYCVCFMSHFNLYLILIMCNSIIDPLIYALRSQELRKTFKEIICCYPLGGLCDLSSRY

| Compound | IC50 |
| --- | --- |
| CC1(C)S[C@@H]2[C@H](NC(=O)[C@H](N)c3ccc(O)cc3)C(=O)N2[C@H]1C(=O)O [AMOXICILLIN] | Not Active |
| NS(=O)(=O)c1cc2c(cc1Cl)NCNS2(=O)=O [HYDROCHLOROTHIAZIDE] | Not Active |
| Oc1cccc2cccnc12 [OXYQUINOLINE] | Not Active |

biological target: T5, Cysteinyl leukotriene receptor 1 (Homo sapiens, UniProt Q9Y271); test: not given; assay type: cell membranes, CHO-K1, Membrane; conditions: cho-k1; note: in other assays of this panel Not Active means under 50% inhibition at 10 µM
T5 sequence (Q9Y271 whole entry): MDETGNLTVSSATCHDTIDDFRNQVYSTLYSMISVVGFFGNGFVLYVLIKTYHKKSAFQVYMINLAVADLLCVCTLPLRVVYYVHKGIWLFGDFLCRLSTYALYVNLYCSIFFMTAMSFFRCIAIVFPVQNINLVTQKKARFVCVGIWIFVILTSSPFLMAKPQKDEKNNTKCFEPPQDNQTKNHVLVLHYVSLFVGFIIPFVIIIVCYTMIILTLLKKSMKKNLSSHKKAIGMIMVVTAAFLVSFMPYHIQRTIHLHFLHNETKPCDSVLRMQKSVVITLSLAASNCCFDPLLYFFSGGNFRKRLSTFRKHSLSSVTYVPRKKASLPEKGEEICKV

| Compound | IC50 |
| --- | --- |
| CC1(C)S[C@@H]2[C@H](NC(=O)[C@H](N)c3ccc(O)cc3)C(=O)N2[C@H]1C(=O)O [AMOXICILLIN] | Not Active |
| NS(=O)(=O)c1cc2c(cc1Cl)NCNS2(=O)=O [HYDROCHLOROTHIAZIDE] | Not Active |
| Oc1cccc2cccnc12 [OXYQUINOLINE] | Not Active |

biological target: Tyrosine-protein kinase Fyn (Homo sapiens, UniProt P06241); test: biochemical; assay type: cell-based, Insect cells; conditions: insect cells
Sequence (P06241 whole entry): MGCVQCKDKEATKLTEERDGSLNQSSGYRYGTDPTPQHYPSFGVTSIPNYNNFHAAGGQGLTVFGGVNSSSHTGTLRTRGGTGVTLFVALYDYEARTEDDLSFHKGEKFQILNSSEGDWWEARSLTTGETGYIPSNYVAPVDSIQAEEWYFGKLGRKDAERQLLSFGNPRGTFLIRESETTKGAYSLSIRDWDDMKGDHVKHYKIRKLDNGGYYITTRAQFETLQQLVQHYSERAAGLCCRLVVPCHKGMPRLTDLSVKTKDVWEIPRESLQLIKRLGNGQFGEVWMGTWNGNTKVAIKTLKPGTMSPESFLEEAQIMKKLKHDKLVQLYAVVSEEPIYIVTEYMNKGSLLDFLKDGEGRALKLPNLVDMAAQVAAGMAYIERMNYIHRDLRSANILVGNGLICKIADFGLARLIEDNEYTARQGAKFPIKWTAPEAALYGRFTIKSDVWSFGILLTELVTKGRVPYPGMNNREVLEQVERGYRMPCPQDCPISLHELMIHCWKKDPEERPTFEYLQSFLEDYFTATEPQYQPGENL

| Compound | IC50 |
| --- | --- |
| CC1(C)S[C@@H]2[C@H](NC(=O)[C@H](N)c3ccc(O)cc3)C(=O)N2[C@H]1C(=O)O [AMOXICILLIN] | Not Active |
| NS(=O)(=O)c1cc2c(cc1Cl)NCNS2(=O)=O [HYDROCHLOROTHIAZIDE] | Not Active |
| Oc1cccc2cccnc12 [OXYQUINOLINE] | Not Active |
